# Experiments:
# Assay type in all cases: biochemical
# 15-lipoxygenase = biological target: T1, 15-lipoxygenase (Glycine max, UniProt P08170); assay: 15-lipoxygenase inhibition, enzyme obtained from soybean; conditions: read-out: Percent Inhibition, 15-lipoxygenase
# T1 construct: 15-lipoxygenase obtained from soybean; from tissue; host or cells: soybean
# T1 sequence (P08170 1-839): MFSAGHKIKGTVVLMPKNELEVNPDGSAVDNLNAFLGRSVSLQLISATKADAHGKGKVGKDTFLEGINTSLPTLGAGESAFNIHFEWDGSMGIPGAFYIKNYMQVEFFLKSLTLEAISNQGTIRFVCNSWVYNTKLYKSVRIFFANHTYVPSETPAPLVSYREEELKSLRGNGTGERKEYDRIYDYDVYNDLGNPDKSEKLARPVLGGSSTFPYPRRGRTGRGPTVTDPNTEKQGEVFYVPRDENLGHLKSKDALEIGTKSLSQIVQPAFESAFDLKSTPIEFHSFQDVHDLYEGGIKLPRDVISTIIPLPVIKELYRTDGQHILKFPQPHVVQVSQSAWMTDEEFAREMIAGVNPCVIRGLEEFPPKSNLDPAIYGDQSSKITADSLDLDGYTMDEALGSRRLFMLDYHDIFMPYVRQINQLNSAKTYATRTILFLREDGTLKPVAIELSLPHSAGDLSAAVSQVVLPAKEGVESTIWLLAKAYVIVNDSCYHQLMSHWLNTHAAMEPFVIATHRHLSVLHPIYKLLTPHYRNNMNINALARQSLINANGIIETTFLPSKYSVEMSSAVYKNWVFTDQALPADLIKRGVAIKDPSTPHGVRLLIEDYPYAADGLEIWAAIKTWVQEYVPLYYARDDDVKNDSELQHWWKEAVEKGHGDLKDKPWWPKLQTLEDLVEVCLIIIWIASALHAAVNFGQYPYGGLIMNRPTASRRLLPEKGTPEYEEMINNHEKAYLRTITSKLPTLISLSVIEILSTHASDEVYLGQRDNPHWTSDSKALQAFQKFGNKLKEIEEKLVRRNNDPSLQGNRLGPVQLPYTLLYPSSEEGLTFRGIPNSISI
# Procedure: (§1) The compounds of this invention are potent inhibitors of 5-, 12-, and 15-lipoxygenases. An assay to determine 5-lipoxygenase activity was performed in incubations containing various concentrations of the test compound and the 20,000 g supernatant from 7.5 million homogenized RBL-1 cells. Reactions were initiated by addition of radiolabeled arachidonic acid and terminated by acidification and ether extraction. Reaction products were separated from nonconverted substrate by thin layer chromatography and measured by liquid scintillation spectroscopy. Inhibition of 5-lipoxygenase activity was calculated as the 50% intercept from linear regression analysis of percentage inhibition versus log concentration plots.
# (§2) Inhibitory activities of the compounds of this invention against 12- and 15-lipoxygenase can be determined in the foregoing assay in which 12-lipoxygenase obtained from human platelets, or 15-lipoxygenase obtained from soybean, is substituted for the […] containing cell supernatant fraction.
# 12-lipoxygenase = biological target: T2, 12-lipoxygenase (Homo sapiens, UniProt P18054); assay: 12-lipoxygenase inhibition, enzyme obtained from human platelets; conditions: read-out: Percent Inhibition, 12-Lipoxygenase
# T2 construct: 12-lipoxygenase obtained from human platelets; from tissue; host or cells: human platelets
# T2 sequence (P18054 1-663): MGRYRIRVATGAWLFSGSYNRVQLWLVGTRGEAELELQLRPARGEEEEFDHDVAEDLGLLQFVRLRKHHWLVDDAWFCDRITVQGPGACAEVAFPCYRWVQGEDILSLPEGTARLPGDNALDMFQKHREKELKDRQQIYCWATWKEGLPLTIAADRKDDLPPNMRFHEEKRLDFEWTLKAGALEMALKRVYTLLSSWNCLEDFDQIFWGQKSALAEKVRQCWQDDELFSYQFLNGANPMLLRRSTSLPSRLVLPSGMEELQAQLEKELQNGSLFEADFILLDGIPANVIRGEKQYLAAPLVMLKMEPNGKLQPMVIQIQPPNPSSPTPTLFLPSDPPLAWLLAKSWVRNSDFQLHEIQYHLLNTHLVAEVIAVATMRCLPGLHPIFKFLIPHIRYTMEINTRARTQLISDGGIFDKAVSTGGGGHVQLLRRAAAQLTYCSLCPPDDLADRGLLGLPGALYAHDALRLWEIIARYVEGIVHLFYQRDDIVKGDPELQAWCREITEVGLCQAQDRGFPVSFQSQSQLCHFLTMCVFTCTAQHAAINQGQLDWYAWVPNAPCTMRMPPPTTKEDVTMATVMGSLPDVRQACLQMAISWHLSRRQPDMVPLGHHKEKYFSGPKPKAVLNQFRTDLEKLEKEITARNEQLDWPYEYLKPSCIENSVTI
# Procedure: as §1, §2
# 5-lipoxygenase = biological target: T3, 5-lipoxygenase (Rattus norvegicus, UniProt P12527); assay: 5-lipoxygenase inhibition, 20,000 g supernatant from homogenized RBL-1 cells, radiolabeled arachidonic acid; conditions: for IC50: 5-lipoxygenase, RBL-1 supernatant, 50% intercept from linear regression of % inhibition vs log concentration
# T3 construct: 20,000 g supernatant from 7.5 million homogenized RBL-1 cells; endogenous in cells; host or cells: RBL-1 cells, 20,000 g supernatant of homogenate
# T3 sequence (P12527 1-673): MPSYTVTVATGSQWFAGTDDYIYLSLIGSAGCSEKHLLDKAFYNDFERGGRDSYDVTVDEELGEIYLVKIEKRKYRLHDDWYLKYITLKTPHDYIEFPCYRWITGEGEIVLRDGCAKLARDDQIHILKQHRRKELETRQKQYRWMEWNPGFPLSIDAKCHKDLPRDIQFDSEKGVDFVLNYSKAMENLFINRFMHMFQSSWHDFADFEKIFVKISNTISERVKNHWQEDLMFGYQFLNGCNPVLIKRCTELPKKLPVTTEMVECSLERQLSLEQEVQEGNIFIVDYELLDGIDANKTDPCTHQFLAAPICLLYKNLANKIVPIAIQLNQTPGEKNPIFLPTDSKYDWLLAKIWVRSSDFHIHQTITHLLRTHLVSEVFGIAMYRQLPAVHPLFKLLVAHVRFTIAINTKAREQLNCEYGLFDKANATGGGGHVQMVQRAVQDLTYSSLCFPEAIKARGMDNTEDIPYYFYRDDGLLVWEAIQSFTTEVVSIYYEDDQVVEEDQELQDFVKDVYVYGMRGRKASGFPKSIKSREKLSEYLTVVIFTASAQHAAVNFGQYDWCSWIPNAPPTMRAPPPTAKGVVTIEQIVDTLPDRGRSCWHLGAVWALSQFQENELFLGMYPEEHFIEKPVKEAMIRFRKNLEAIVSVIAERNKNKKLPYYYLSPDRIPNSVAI
# Procedure: as §1
Compound,inhibition at 10 µM (15-lipoxygenase) [%],inhibition at 100 µM (15-lipoxygenase) [%],inhibition at 10 µM (12-lipoxygenase) [%],inhibition at 100 µM (12-lipoxygenase) [%],IC50 (5-lipoxygenase) [nM],"inhibition at 100 µM (5-lipoxygenase; @ 100 uM, read-out: percentage inhibition of 5-lipoxygenase) [%]","inhibition at 30 µM (5-lipoxygenase; @ 30 uM, read-out: percentage inhibition of 5-lipoxygenase) [%]"
"O=c1ccc2ccccc2n1O [Example 1, 1-hydroxyquinol-2-(1H)-one]",59,95,93,98,5300,,
"COC(=O)c1cc2ccccc2n(O)c1=O [Example 2, 3-Carbomethoxy-1-hydroxyquinol-2(1H)-one]",5,14,66,94,24000,,
"O=c1c(Br)cc2ccccc2n1O [Example 3, 3-Bromo-1-hydroxyquinol-2-(1H)-one]",,,,,4200,,
"Cc1cc(=O)n(O)c2ccccc12 [Example 4, 4-Methyl-1-hydroxyquinol-2(1H)-one]",,,,,1400,,
"COc1ccc2c(c1)c(Cl)cc(=O)n2O [Example 5, 4-Chloro-6-methoxy-1-hydroxyquinol-2(1H)-one]",,,,,1600,,
"O=c1ccc2c([N+](=O)[O-])cccc2n1O [Example 6, 5-Nitro-1-hydroxyquinol-2(1H)-one]",27,98,83,98,3700,,
"Cc1ccc2c(ccc(=O)n2O)c1[N+](=O)[O-] [Example 7, 6-Methyl-5-nitro-1-hydroxyquinol-2(1H)-one]",,,,,2000,,
"O=c1ccc2cc(Cl)ccc2n1O [Example 8, 6-Chloro-1-hydroxyquinol-2(1H)-one]",95,100,95,97,870,,
"Cc1ccc2c(ccc(=O)n2O)c1 [Example 9, 6-Methyl-1-hydroxyquinol-2-(1H)-one]",,,,,1100,,
"COc1ccc2c(ccc(=O)n2O)c1 [Example 10, 6-Methoxy-1-hydroxyquinol-2-(1H)-one]",62,94,90,97,1500,,
"O=c1ccc2cc([N+](=O)[O-])ccc2n1O [Example 11, 6-Nitro-1-hydroxyquinol-2(1H)-one]",2,32,67,90,14000,,
"O=c1ccc2cc(-c3ccccc3)ccc2n1O [Example 12, 6-Phenyl-1-hydroxyquinol-2(1H)-one]",97,100,97,98,340,,
"Cc1ccc2ccc(=O)n(O)c2c1 [Example 13, 7-Methyl-1-hydroxyquinol-2(1H)-one]",61,97,94,97,980,,
"O=c1ccc2c3ccccc3ccc2n1O [Example 14, 5,6-Benzo-1-hydroxyquinol-2(1H)-one]",,,,,840,,
"O=c1c2ccccc2c2ccccc2n1O [Example 15, 3,4-Benzo-1-hydroxyquinol-2(1H)-one]",13,60,96,98,2500,,
"CC(C)c1cc2ccccc2n(O)c1=O [Example 16, 3-Isopropyl-1-hydroxy-quinol-2(1H)--one]",40,93,93,98,,,
"O=c1c2ccccc2ccn1O [Example 27, 2-hydroxyquinol-1(2H)-one]",,,,,6000,,
"O=c1c2ccccc2cc(O)n1O [Example 28, 2,3-Dihydroxyquinol-1(2H)-one]",,,,,,54,
"O=c1c2ccccc2c(Br)cn1O [Example 29, 4-Bromo-2-hydroxyquinol-1(2H)-one]",43,94,89,96,2600,,
"O=c1c2ccccc2c([N+](=O)[O-])cn1O [Example 30, 4-Nitro-2-hydroxyquinol-1(2H)-one]",10,12,54,83,,,32
"O=c1c2ccccc2c(-c2ccccc2)cn1O [Example 31, 4-Phenyl-2-hydroxyquinol-1(2H)-one]",14,50,95,99,450,,
"Cc1cn(O)c(=O)c2ccccc12 [Example 32, 4-Methyl-2-hydroxy-quinol-1(2H)-one]",,,,,3900,,
"Cc1cccc2c(=O)n(O)ccc12 [Example 33, 5-Methyl-2-hydroxyquinol-2(1H)-one]",,,,,2400,,
COc1ccc2ccn(O)c(=O)c2c1 [Example 34],20,45,90,98,2500,,
O=c1c2ccccc2c(-c2ccccc2)c(-c2ccccc2)n1O [Example 35],,,,,1500,,

# From patent publication US4761403A, “Lipoxygenase inhibiting compounds” (Abbott Laboratories, priority 1986, dated 1988)
